Data published in the supplement of paper PMC10307832.

What was measured:
Assay in all cases: relative viability (nuclei count vs DMSO), 5 days (fraction); higher = more cells survive
Metformin = compound: CN(C)C(=N)NC(=N)N [Metformin]
Procedure, shortened: (§1)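 Only plates meeting two conditions passed: control CV below 25% and at least one doubling. Lung cancer cell lines, kept overnight at 37 °C in 1536-well plates, were pinned with five library-drug doses (not always all listed) √10 apart on vehicle-anchored plates and grown 5 days without medium change. A one-step fix, permeabilisation and Hoechst stain preceded 4× imaging and MetaXpress nuclear counting. Viability equals treated-well nuclei divided by vehicle-well nuclei, as the median over plates.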

Apatinib = compound: N#CC1(c2ccc(NC(=O)c3cccnc3NCc3ccncc3)cc2)CCCC1 [Apatinib]
Procedure, shortened: as §1

Apatinib + Pemetrexed = compound: N#CC1(c2ccc(NC(=O)c3cccnc3NCc3ccncc3)cc2)CCCC1 [Apatinib] + Nc1nc2[nH]cc(CCc3ccc(C(=O)N[C@@H](CCC(=O)O)C(=O)O)cc3)c2c(=O)[nH]1 [Pemetrexed] (partner 0.2 µM)
Procedure, shortened: (§2)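 Nuclei were stained with Hoechst during a one-step fixation (final 0.05% Triton X-100, 1% formaldehyde, 1 ug/ml Hoechst) carried out 5 days after dosing, then counted on 4× images. The cells, lung cancer lines in 1536-well plates, had been dosed by pin tool the day after seeding with one drug alone or a fixed anchor-drug dose plus five library-drug doses (not always all listed) in √10 steps. Relative viability is the nuclei count in treated wells divided by that in vehicle wells, and each value is the median of duplicate plates.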

Metformin + Alpelisib = compound: CN(C)C(=N)NC(=N)N [Metformin] + Cc1nc(NC(=O)N2CCC[C@H]2C(N)=O)sc1-c1ccnc(C(C)(C)C(F)(F)F)c1 [Alpelisib] (partner 2 µM)
Procedure, shortened: as §2

| Cell Line | relative viability (Metformin; 10 µM) | relative viability (Metformin; 31.62 µM) | relative viability (Metformin; 100 µM) | relative viability (Metformin; 316.23 µM) | relative viability (Metformin; 1000 µM) | relative viability (Apatinib; 0.08 µM) | relative viability (Apatinib; 0.253 µM) | relative viability (Apatinib; 0.8 µM) | relative viability (Apatinib; 2.53 µM) | relative viability (Apatinib; 8 µM) | relative viability (Apatinib + Pemetrexed; first compound 0.08 µM) | relative viability (Apatinib + Pemetrexed; first compound 0.253 µM) | relative viability (Apatinib + Pemetrexed; first compound 0.8 µM) | relative viability (Apatinib + Pemetrexed; first compound 2.53 µM) | relative viability (Apatinib + Pemetrexed; first compound 8 µM) | relative viability (Metformin + Alpelisib; first compound 10 µM) | relative viability (Metformin + Alpelisib; first compound 31.62 µM) | relative viability (Metformin + Alpelisib; first compound 100 µM) | relative viability (Metformin + Alpelisib; first compound 316.23 µM) | relative viability (Metformin + Alpelisib; first compound 1000 µM) |
| --- | --- | --- | --- | --- | --- | --- | --- | --- | --- | --- | --- | --- | --- | --- | --- | --- | --- | --- | --- | --- |
| LCLC-103H | 0.848 | 1.01 | 1.07 | 1.01 | 1.02 | 0.998 | 0.956 | 0.956 | 0.912 | 0.942 | 0.439 | 0.463 | 0.412 | 0.432 | 0.39 | 1.05 | 1 | 1.14 | 1.03 | 1 |
| LK-2 | 1.22 | 1.28 | 1.22 | 1.07 | 1.32 | 0.978 | 0.976 | 0.973 | 0.856 | 0.634 | 0.255 | 0.243 | 0.255 | 0.181 | 0.134 | 1.56 | 1.53 | 1.63 | 1.36 | 1.32 |
| LOU-NH91 | 0.998 | 0.865 | 0.973 | 0.997 | 0.946 | 0.94 | 0.922 | 0.871 | 0.89 | 0.898 | 0.418 | 0.396 | 0.424 | 0.336 | 0.303 | 0.762 | 0.709 | 0.806 | 0.634 | 0.642 |
| LU99A | 0.946 | 0.894 | 0.785 | 0.792 | 0.915 | 0.923 | 1.11 | 0.95 | 0.925 | 0.83 | 0.189 | 0.198 | 0.183 | 0.174 | 0.212 | 0.404 | 0.4 | 0.379 | 0.382 | 0.44 |
| LXF-289 | 0.872 | 0.927 | 0.95 | 0.946 | 0.99 | 0.989 | 0.976 | 0.981 | 0.943 | 0.951 | 0.916 | 0.908 | 0.818 | 0.692 | 0.886 | 0.909 | 0.97 | 0.963 | 0.943 | 1.01 |
| NCI-H23 | 0.919 | 1.17 | 0.969 | 0.997 | 1.13 | 1.08 | 0.977 | 0.912 | 0.937 | 0.88 | 0.747 | 0.855 | 0.677 | 0.57 | 0.439 | 0.825 | 0.941 | 0.696 | 0.715 | 0.901 |
| NCI-H322M | 0.974 | 0.922 | 0.939 | 0.951 | 0.855 | 0.964 | 0.861 | 0.894 | 0.975 | 1.07 | 0.605 | 0.633 | 0.623 | 0.593 | 0.54 | 0.83 | 0.901 | 0.845 | 0.787 | 0.779 |
| NCI-H358 | 0.939 | 1.09 | 1.03 | 0.98 | 1.09 | 0.987 | 1.03 | 0.962 | 0.961 | 0.877 | 0.173 | 0.165 | 0.233 | 0.163 | 0.128 | 1.1 | 0.911 | 1.07 | 0.915 | 1.25 |
